{"source": "patent US9232796B2", "about": "“Herbicidal compositions comprising 4-amino-3-chloro-5-fluoro-6-(4-chloro-2-fluoro-3-methoxyphenyl) pyridine-2-carboxylic acid or a derivative thereof and acetyl-CoA carboxylase (ACCase) inhibitors” (DOW AGROSCIENCES LLC, priority 2012, dated 2016)", "key": {"[1]": {"tested_on": "SCPMA", "assay": "Example II in-water applied, greenhouse, transplanted paddy rice weeds", "type": "in vivo, Schoenoplectus maritimus (L.) Lye", "experimental": "Weed seeds or nutlets of the desired test plant species were planted in puddled soil (mud) prepared by mixing a shredded, non-sterilized mineral soil (50.5 percent silt, 25.5 percent clay, and 24 percent sand, with a pH of about 7.6 and an organic matter content of about 2.9 percent) and water at a 1:1 volumetric ratio. The prepared mud was dispensed in 365 mL aliquots into 16-ounce (oz.) non-perforated plastic pots with a surface area of 86.59 square centimeters (cm^2) leaving a headspace of 3 centimeters (cm) in each pot. Mud was allowed to dry overnight prior to planting or transplanting. Rice seeds were planted in Sun Gro MetroMix® 306 planting mixture, which typically has a pH of 6.0 to 6.8 and an organic matter content of about 30 percent, in plastic plug trays. Seedlings at the second or third leaf stage of growth were transplanted into 860 mL of mud contained in 32-oz. non-perforated plastic pots with a surface area of 86.59 cm^2 4 days prior to herbicide application. The paddy was created by filling the headspace of the pots with 2.5 to 3 cm of water. […] The plants were grown for 4-22 days in a greenhouse with an approximate 14 hr. photoperiod which was maintained at about 29° C. during the day and 26° C. during the night. Nutrients were added as Osmocote® (19:6:12, N:P:K+minor nutrients) at 2 g per 16-oz. pot and 4 g per 32-oz. pot. Water was added on a regular basis to maintain the paddy flood, and supplemental lighting was provided with overhead metal halide 1000-Watt lamps as necessary. The plants were employed for testing when they reached the first through fourth true leaf stage.\nTreatments consisted of the acid or esters of 4-amino-3-chloro-5-fluoro-6-(4-chloro-2-fluoro-3-methoxy-phenyl)pyridine-2-carboxylic acid (compound A) each formulated as an SC (suspension concentrate) and various herbicidal components alone and in combination.\nFor formulated compounds, a measured amount was placed in an individual 100 or 200 mL glass vial and was dissolved in a volume of 1.25% (v/v) Agri-Dex® crop oil concentrate to obtain application solutions.\nApplications were made by injecting with a pipetter appropriate amounts of the application solutions, individually and sequentially, into the aqueous layer of the paddy. Control plants were treated in the same manner with the solvent blank. Applications were made so that all treated plant material received the same concentrations of acetone and crop oil concentrate.\n(§1) The treated plants and control plants were placed in a greenhouse as described above and water was added as needed to maintain a paddy flood. After approximately 3 weeks the condition of the test plants as compared with that of the untreated plants was determined visually and scored on a scale of 0 to 100 percent where 0 corresponds to no injury or growth inhibition and 100 corresponds to complete kill.\n(§2) Colby's equation was used to determine the herbicidal effects expected from the mixtures (Colby, S. R. 1967. Calculation of the synergistic and antagonistic response of herbicide combinations. Weeds 15:20-22.).\n(§3) The following equation was used to calculate the expected activity of mixtures containing two active ingredients, A and B: Expected=A+B−(A×B/100)"}, "[2]": {"tested_on": "LOLMU", "assay": "Example III postemergence foliar-applied, greenhouse, weeds common to row crops such as corn and soybeans", "type": "in vivo, Lolium multiflorum Lam.", "text": "Seeds or nutlets of the desired test plant species were planted in a soil matrix prepared by mixing a loam or sandy loam soil (e.g., 28.6 percent silt, 18.8 percent clay, and 52.6 percent sand, with a pH of about 5.8 and an organic matter content of about 1.8 percent) and calcareous grit in an 80 to 20 ratio. The soil matrix was contained in plastic pots with a surface area of 84.6 square centimeters (cm^2) and a volume of 560 cubic centimeters (cm^3). When required to ensure good germination and healthy plants, a fungicide treatment and/or other chemical or physical treatment was applied. The plants were grown for 7-31 days (d) in a greenhouse with an approximate 15 hour (h) photoperiod which was maintained at about 23-29° C. during the day and 22-28° C. during the night. Nutrients (Peters Excel® 15-5-15 5-Ca 2-Mg) and water were added on a regular basis and supplemental lighting was provided with overhead metal halide 1000-Watt lamps as necessary. The plants were employed for testing when they reached the first, second, or third true leaf stage.\nTreatment requirements were calculated based upon the rates being tested, the concentration of active ingredient or acid equivalent in the formulation, and a 12 mL application volume at a rate of 187 L/ha.\nTreatments consisted of the acid or esters of 4-amino-3-chloro-5-fluoro-6-(4-chloro-2-fluoro-3-methoxy-phenyl)pyridine-2-carboxylic acid (Compound A), each formulated as an SC (suspension concentrate), and various herbicidal components alone and in combination.\nOther herbicidal components were applied on an acid equivalent basis and included acetyl coA carboxylase (ACCase)-inhibiting herbicide (cyclohexanedione and aryloxyphenoxypropionate chemical classes) quizalofop-p-ethyl formulated as Assure® II.\nAll stock solutions and applications solutions were visually inspected for compound compatibility prior to application. Compound requirements are based upon a 12 mL application volume at a rate of 187 liters per hectare (L/ha). Formulated compounds were applied to the plant material with an overhead Mandel track sprayer equipped with 8002E nozzles calibrated to deliver 187 L/ha over an application area of 0.503 square meters (m^2) at a spray height of 18 to 20 inches (46 to 50 cm) above the average plant canopy height. Control plants were sprayed in the same manner with the solvent blank.\nas §1, with “watered by sub-irrigation” for “water was added as needed”, “prevent wash-off of the test compounds.” for “maintain a paddy flood.”, “2 weeks,” for “3 weeks”\nas §2, §3"}}}
{"compound": "COc1c(Cl)ccc(-c2nc(C(=O)O)c(Cl)c(N)c2F)c1F", "note": "[Compound A Acid, 4-amino-3-chloro-6-(4-chloro-2-fluoro-3-methoxyphenyl)-5-fluoropyridine-2-carboxylic acid]", "values": [{"measurement": "Visual Weed Control (%) - 21 DAA SCPMA Obs", "setting": "[1]; 35 gae/ha", "value": 0, "unit": "%"}, {"measurement": "Visual Weed Control (%) - 14 DAA LOLMU Obs", "setting": "[2]; Compound A Acid 3.75 gae/ha", "value": 0, "unit": "%"}, {"measurement": "Visual Weed Control (%) - 14 DAA LOLMU Obs", "setting": "[2]; Compound A Acid 7.5 gae/ha", "value": 10, "unit": "%"}, {"measurement": "Visual Weed Control (%) - 14 DAA LOLMU Obs", "setting": "[2]; Compound A Acid 15 gae/ha", "value": 10, "unit": "%"}]}
{"compound": "C[C@@H](Oc1ccc(Oc2nc3ccc(Cl)cc3o2)cc1)C(=O)N(C)c1ccccc1F", "note": "[Metamifop, (2R)-2-[4-[(6-chloro-2-benzoxazolyl)oxy]phenoxy]-N-(2-fluorophenyl)-N-methylpropanamide]", "values": [{"measurement": "Visual Weed Control (%) - 21 DAA SCPMA Obs", "setting": "[1]; 75 gai/ha", "value": 0, "unit": "%"}, {"measurement": "Visual Weed Control (%) - 21 DAA SCPMA Obs", "setting": "[1]; 150 gai/ha", "value": 0, "unit": "%"}]}
{"compound": "CCCCOC(=O)[C@@H](C)Oc1ccc(Oc2ccc(C#N)cc2F)cc1", "note": "[Cyhalofop-butyl, butyl(2R)-2-[4-(4-cyano-2-fluorophenoxy)phenoxy]propanoate, reference compound]", "values": [{"measurement": "Visual Weed Control (%) - 19 DAA SCPMA Obs", "setting": "[1]; 180 gai/ha", "value": 0, "unit": "%"}]}
{"compound": "CCOC(=O)[C@@H](C)Oc1ccc(Oc2cnc3cc(Cl)ccc3n2)cc1", "note": "[Quizalofop-p-ethyl, ethyl(2R)-2-[4-[(6-chloro-2-quinoxalinyl)oxy]phenoxy]propanoate, reference compound]", "values": [{"measurement": "Visual Weed Control (%) - 14 DAA LOLMU Obs", "setting": "[2]; Quizalofop-p-ethyl 3.56 gae/ha", "value": 0, "unit": "%"}, {"measurement": "Visual Weed Control (%) - 14 DAA LOLMU Obs", "setting": "[2]; Quizalofop-p-ethyl 7.125 gae/ha", "value": 60, "unit": "%"}]}
{"compound": "COc1c(Cl)ccc(-c2nc(C(=O)OCc3ccccc3)c(Cl)c(N)c2F)c1F", "note": "[Compound A Benzyl Ester, benzyl ester of 4-amino-3-chloro-5-fluoro-6-(4-chloro-2-fluoro-3-methoxy-phenyl)pyridine-2-carboxylic acid]", "values": [{"measurement": "Visual Weed Control (%) - 19 DAA SCPMA Obs", "setting": "[1]; 35 gae/ha", "value": 0, "unit": "%"}, {"measurement": "Visual Weed Control (%) - 14 DAA LOLMU Obs", "setting": "[2]; Compound A Benzyl Ester 3.75 gae/ha", "value": 0, "unit": "%"}, {"measurement": "Visual Weed Control (%) - 14 DAA LOLMU Obs", "setting": "[2]; Compound A Benzyl Ester 7.5 gae/ha", "value": 10, "unit": "%"}, {"measurement": "Visual Weed Control (%) - 14 DAA LOLMU Obs", "setting": "[2]; Compound A Benzyl Ester 15 gae/ha", "value": 10, "unit": "%"}]}
